Measured values: patent publication US11970583B2, “Therapeutic dendrimer” (Starpharma Pty Ltd., priority 2018, dated 2024)
“Also recorded” adds a separate entry of the source. Like-named read-outs stand apart in the source and are kept apart here.

Tests used:
[1] = 2.5 mg/kg
[2] = Toxicology study in rats at 1 mg/kg (neutropenia); format: in vivo; details: for neutropenia (FIG. 6), day 7 in particular: male and female rats
Text: References to amounts dosed in mg/kg for the dendrimeric compound are to the amounts of Cabazitaxel that may theoretically be released by the dendrimer.

[3] = cited from earlier work
[4] = Single-dose toxicokinetic study, intravenous bolus, free (unconjugated) cabazitaxel in plasma; format: in vivo, Sprague Dawley Crl:CD (SD) rats; details: for Cmax free (unconjugated) Cabazitaxel: i.v. bolus; for % JEVTANA ® brand cabazitaxel dose: relative to JEVTANA 2.5 mg/kg
Protocol: A single-dose toxicokinetic study of SPL-9048 and SPL-9005 was carried out by intravenous bolus injection in rats with a 21-day observation period. The control, 0.9% sodium chloride, was prepared and dispensed on the day of dosing. SPL-9048 and SPL-9005 were prepared at appropriate concentrations to meet dose level requirements. The dosing formulations were prepared and dispensed on each day of dosing and were used within 3 hours of preparation. The required amount of test article was weighed out and dissolved in a suitable volume of normal saline with gentle swirling and the pH was recorded. Cabazitaxel (JEVTANA® brand cabazitaxel) was prepared at appropriate concentration to meet dose level requirements. […] This stock solution was further diluted with normal saline to produce the final dosing concentration within 30 minutes.
The animals used were male and female Sprague Dawley Crl:CD (SD) rats. The animals were 10 to 14 weeks old and weighed between 327 and 565 g for males and 212 and 316 g for females at initiation of dosing. Animals were acclimated to their designated housing for at least 4 days before the first day of dosing. Animals were assigned to groups by a stratified randomization scheme designed to achieve similar group mean body weights. Males and females were randomised separately. Animals in poor health or at extremes of body weight ranges were not assigned to groups. PMI Nutrition International Certified Rodent Chow No. 5CR4 was provided ad libitum throughout the study except during designated procedures. The same diet in meal form was also provided, as needed. Municipal tap water, after treatment by reverse osmosis and ultraviolet irradiation, was freely available to each animal via an automatic watering system, except during designated procedures. Water bottles were also provided, as required. Animal were socially housed for psychological/environmental enrichment and were provided with items such as a chewing object, except when interrupted by study procedures/activities. Veterinary care was available throughout the course of the study.
The test and control articles were administered to the appropriate animals at the amounts indicated in the table below via a single intravenous (slow bolus) injection to the tail vein.
The dose volume for each animal was based on the most recent body weight measurement. The animals were temporarily restrained for dose administration and were not sedated. The doses were given using a syringe with attached needle. The first day of dosing for each group was designated as Day 1. The comparator dosing formulation (JEVTANA® brand Cabazitaxel) and test articles were maintained between 15 and 30° C. during dosing.
Toxicokinetic parameters were estimated using Phoenix pharmacokinetic software. A non-compartmental approach consistent with the intravenous route of administration was used for parameter estimation.

[5] = cited from earlier work; remark: listed apart in the source
[6] = system: MDA-MB-231 tumour xenografts
Protocol: Cabazitaxel was prepared fresh for each dosing day.
Tumour volumes were determined twice weekly and were expressed as mean tumour volume (±SEM).
The data represent the mean percent weight change from baseline (Day 1) for each group; bars SEM.

[7] = system: CAPAN-1 tumour xenografts; assay: CAPAN-1 mouse xenograft pancreatic cancer model study; format: in vivo, Female NOD-SCID Interleukin-2 receptor gamma chain null mice; details: for Tumour Growth inhibition (%): Day 37, Gemcitabine 80 mg/kg i.p., ABRAXANE 40 mg/kg i.v., SPL9048 […] i.v.; for Tumour Growth inhibition (%) / anti-tumour efficacy (mean tumour volume, FIG. 7): dosing days 1, 8, 15; for anti-tumour efficacy (mean tumour volume, FIG. 7): study to day 107
Protocol: Gemcitabine and ABRAXANE® were obtained from the Peter MacCallum Cancer Centre pharmacy, and were dissolved in saline solution immediately prior to dosing.
Female NOD-SCID Interleukin-2 receptor gamma chain null mice (aged 9 weeks) were inoculated subcutaneously on the flank with 5×10^6 CAPAN-1 cells in PBS:Matrigel (1:1).
Tumour growth data was analysed in GraphPad Prism for ANOVA followed by Dunnett's post ad-hoc test.

[8] = Stability in solution (precipitation); format: physicochemical; details: compared with SPL9049
DU145 tumour xenografts = assay: DU145 mouse xenograft prostate cancer model study; format: in vivo, Male SCID mice
Protocol: Cabazitaxel was prepared fresh for each dosing day. […] Dosing solutions at 4.5 and 5.5 mg/mL were prepared from this working stock immediately prior to injection.
Male SCID mice (age 7-8) weeks were inoculated subcutaneously in the flank with 3×10^6 DU145 cells in PBS:Matrigel (1:1). Mice were weighed and tumours measured 2-3 times weekly using electronic callipers. […] Treatment groups were saline, Cabazitaxel (9 and 11 mg/kg), SPL-9048 (9 mg/kg) and SPL-9005 (25 mg/kg). […] The experiment was ended on Day 126, or earlier if an ethical endpoint was met. Survival curves were analysed using the Mantel Cox log rank test.
Tumour volumes were determined 2-3 times weekly and are expressed as mean tumour volume (±SEM).
Graphs are shown for each group until fewer than 6 animals remained in each group.

[9] = system: progressive metastatic disease; assay: Phase 1 dose escalation study: treatment response and biomarkers; format: in vivo, human patients
Protocol: Biomarker, PK and other data were collected from patients enrolled in the study. Patients were dosed every 3 weeks, over 1 hour using an infusion pump. Patients all had progressive metastatic disease. The patient population was heavily pre-treated with a range of chemotherapeutic agents as described in the below table.

[10] = Separate tolerability study in female SCID mice; format: in vivo; details: 25 mg/kg Cabazitaxel equivalent

Compound: CO[C@H]1C(=O)[C@]2(C)[C@@H](OC)C[C@H]3OC[C@@]3(OC(C)=O)[C@H]2[C@H](OC(=O)c2ccccc2)[C@]2(O)C[C@H](OC(=O)[C@H](O)[C@@H](NC(=O)OC(C)(C)C)c3ccccc3)C(C)=C1C2(C)C [Cabazitaxel]
- test article related hematology changes ([1]; by Day 2 through Day 7, males and females): generally greater
- rebound after neutropenia at day 14 [2]: substantial rebound at day 14
- neutropenia (FIG. 6), day 7 in particular [2]: dip in values
- patients with febrile neutropenia ([3]; 25-mg/m2 dose): 4%
- patients with prolonged grade 4 neutropenia ([3]; 25-mg/m2 dose): 4%
- AUC concentration ([3]; 25-mg/m^2 dose): 642±320 mcg/L per hour
- Cmax ([3]; 25-mg/m^2 dose): 535 ± 305 µg/L
- dose eliminated within 2 weeks ([3]; in vivo): Approximately 80%
- patients with diarrhea ([3]; in vivo): 56%
- patients with fatigue ([3]; in vivo): 36%
- patients with grade 1 hypersensitivity reactions (flushing, dizziness, chest tightness) ([3]; in vivo): 8%
- patients with nausea ([3]; in vivo): 40%
- patients with neurotoxicity ([3]; in vivo): 36%
- patients with vomiting ([3]; in vivo): 16%
- intermediate elimination phase, average t½ ([3]; triphasic model, plasma): 1.3 ± 0.6 h
- prolonged terminal elimination phase, average t½ ([3]; triphasic model, plasma): 77.3 ± 45.5 h
- rapid initial elimination phase, average terminal half-life t½ ([3]; triphasic model, plasma): 2.6 ± 1.4 min
- Cabazitaxel measurability in plasma over time ([4]; 2.5 mg/kg): not measurable more than 24 hours after
- AUC0-t free Cabazitaxel ([4]; 2.5 mg/kg drug eq., males): 679.99 ng·h/mL
- Cmax free (unconjugated) Cabazitaxel ([4]; 2.5 mg/kg drug eq., males): 801.05 ng/mL
- % JEVTANA ® brand cabazitaxel dose ([4]; 2.5 mg/kg drug eq., males): 100%
- Cmax ([4]; Sprague Dawley Crl:CD (SD), rat, plasma, intravenous, 2.5 mg/kg): 801 ng/mL
- Tmax ([4]; male, Sprague Dawley Crl:CD (SD), rat, plasma, intravenous, 2.5 mg/kg, males): 2 min
- mean Cmax ([5]; 25 mg/m2, 1-hour IV, n=67): 226 ng/mL
- Tmax (end of infusion) ([5]; 25 mg/m2, 1-hour IV): 1 h
- mean AUC ([5]; 25 mg/m2, 1-hour IV): 991 ng·h/mL
- patients with Grade 3 or 4 febrile neutropenia ([5]; in vivo): 8%
- patients with neutropenia (all grades) ([5]; in vivo): 94%
- tumours reaching ethical tumour volume endpoint by day 98 ([6]; 9 mg/kg i.v. days 1, 8, 15): 9 of 10

Compound: Nc1ccn([C@@H]2O[C@H](CO)[C@@H](O)C2(F)F)c(=O)n1 [Gemcitabine, reference compound]
- Tumour Growth inhibition (%) [7]: 40%
- anti-tumour efficacy (mean tumour volume, FIG. 7) [7]: Neither Gemcitabine or ABRAXANE® were effective in this model

Compound: BHALys[Lys]32[α-DGA-Cabazitaxel]32†[ε-PEG˜2100]32‡ [SPL9048]
- stability in solution (e.g. with regard to precipitation) [8]: increased stability in solution
- toxicity overall [1]: Reduced toxicity
- antitumour efficacy (mean tumour volume, FIG. 1) (DU145 tumour xenografts; 9 mg/kg i.v. Days 1, 8 and 15, to Day 126): complete tumour regression with no regrowth observed in any of the animals on Day 126
- tolerability (body weight, FIG. 2) (DU145 tumour xenografts; male mice, 9 mg/kg i.v. Days 1, 8, 15, 9 mg/kg): overall well tolerated; also recorded: better tolerated than SPL9005
- max weight loss (DU145 tumour xenografts; male mice, 9 mg/kg, on Day 20): −10%
- rebound after neutropenia at day 14 [2]: virtually no rebound
- neutropenia (FIG. 6), day 7 in particular [2]: lesser/no dip in values
- AUC0-t free Cabazitaxel ([4]; 1 mg/kg drug eq., males): 445.00 ng·h/mL
- Cmax free (unconjugated) Cabazitaxel ([4]; 1 mg/kg drug eq., males): 14.13 ng/mL
- % JEVTANA ® brand cabazitaxel dose ([4]; 1 mg/kg drug eq., males): 65%
- AUC0-t free Cabazitaxel ([4]; 2.5 mg/kg drug eq., males): 1239.99 ng·h/mL
- Cmax free (unconjugated) Cabazitaxel ([4]; 2.5 mg/kg drug eq., males): 36.89 ng/mL
- % JEVTANA ® brand cabazitaxel dose ([4]; 2.5 mg/kg drug eq., males): 182%
- tolerability (body weight, FIG. 4) ([6]; 9 and 10 mg/kg): overall well tolerated
- antitumour efficacy (mean tumour volume, FIG. 3) ([6]; 9 and 10 mg/kg i.v. days 1, 8 and 15): complete tumour regression
- survival ([6]; both doses (9 and 10 mg/kg)): significantly extended survival beyond that of Cabazitaxel
- dose at which biomarker response occurs ([9]; FIGS. 8 and 9): ≥ 10 mg/m^2
- CA-125 (FIG. 9) ([9]; ovarian cancer, after two doses at 15 mg/m^2): declining
- Stable disease ([9]; patient: digital papillary adenocarcinoma (stage IV), 2 to 15 mg/m^2, 12 cycles): Stable disease > 33 weeks.
- CA-125 decline ([9]; patient: ovarian (stage IV), 15 to 20 mg/m^2, 7 cycles, over 15 weeks): CA-125 declining (60%) from 652
- CA-125 after decline ([9]; patient: ovarian (stage IV), from 652, over 15 weeks, after one cycle at 15 mg/m^2): to 255 kU/L (over 15 weeks) after
- CA 19-9 decline ([9]; patient: pancreatic adenocarcinoma (stage IV), 20 mg/m^2, 3 cycles, after one cycle): CA 19-9 declining (28%) from 177
- CA 19-9 after decline ([9]; patient: pancreatic adenocarcinoma (stage IV), 20 mg/m^2, from 177 baseline, after one cycle): baseline to 127 kU/L after one
- CA 19-9 ([9]; patient: pancreatic adenocarcinoma, 20 mg/m^2, 1 cycle): Stable CA 19-9, abdominal pain
- abdominal pain and opioid treatment ([9]; patient: pancreatic adenocarcinoma, 20 mg/m^2, after one cycle): subsided and cessation of opioid
- Stable disease ([9]; patient: prostate (stage III), 5 to 20 mg/m^2, 13 cycles): Stable disease > 35 weeks.
- PSA after decline ([9]; patient: prostate (stage III), 5 to 20 mg/m^2, declined from 106 over 12 weeks): PSA declined from 106 to 25 μg/L
- Stable disease ([9]; patient: prostate, 20 mg/m^2, 5 cycles): Stable disease > 6 weeks
- PSA after decline ([9]; patient: prostate, 20 mg/m^2, 5 cycles, from 262, in 3 weeks after three cycles): 86 μg/L (in 3 weeks) after three
- PSA stability ([9]; patient: prostate, 5 cycles, at 5 mg/m^2): Preliminary signs of PSA stability
- PSA (FIG. 8) ([9]; prostate cancer patients, multiple doses at 10 mg/m^2, continuing at 20 mg/m^2): declining
- Tumour Growth inhibition (%) [7]: 107%
- tumour growth inhibition compared with ABRAXANE ([7]; […] i.v. vs 40 mg/kg i.v.): more effectively than ABRAXANE®
- anti-tumour efficacy (mean tumour volume, FIG. 7) [7]: complete regression of CAPAN-1 tumours for the duration of the study

Compound: BHALys[Lys]32[α-TDA-Cabazitaxel]32 †[ε-PEG˜2100]32‡ [SPL9005]
- male mice recovered to +5/10% starting weight (DU145 tumour xenografts; 25 mg/kg, after day 40): 2/10
- male mice with >20% weight loss (DU145 tumour xenografts; 25 mg/kg, after third dose, approx. day 25): 8/10
- mean weight loss [10]: below 10%
- AUC0-t free Cabazitaxel ([4]; 1 mg/kg drug eq., males): 202.94 ng·h/mL
- Cmax free (unconjugated) Cabazitaxel ([4]; 1 mg/kg drug eq., males): 4.41 ng/mL
- % JEVTANA ® brand cabazitaxel dose ([4]; 1 mg/kg drug eq., males): 30%
- AUC0-t free Cabazitaxel ([4]; 2.5 mg/kg drug eq., males): 548.96 ng·h/mL
- Cmax free (unconjugated) Cabazitaxel ([4]; 2.5 mg/kg drug eq., males): 9.29 ng/mL
- % JEVTANA ® brand cabazitaxel dose ([4]; 2.5 mg/kg drug eq., males): 81%
